According to ChEMBL document CHEMBL4304773, “Nitroimidazole-containing compounds and their antibacterial and antitubercular activities” (2019):
≈ marks a conversion by molar mass, not a printed value. Values belong to the molecule of their own block, whether it stands above or below them.

Assays:
[1] = tested on: Helicobacter pylori; test: Antibacterial activity against Helicobacter pylori clinical isolate assessed as zone of inhibition at 8 ug/disc; type: functional; settings: read-out: IZ
[2] = tested on: Helicobacter pylori; test: Antibacterial activity against drug-sensitive Helicobacter pylori assessed as zone of inhibition at 8 ug/disc; type: functional; settings: read-out: IZ
[3] = tested on: Staphylococcus aureus; test: Antibacterial activity against Staphylococcus aureus ATCC 6538 after 18 hrs by two fold serial dilution; type: functional; settings: ATCC 6538, 18 h
[4] = tested on: Bacillus subtilis; test: Antibacterial activity against Bacillus subtilis PTCC 1023 after 18 hrs by two fold serial dilution; type: functional; settings: PTCC 1023, 18 h
[5] = tested on: Klebsiella pneumoniae; test: Antibacterial activity against Klebsiella pneumoniae ATCC 10031 after 18 hrs by two fold serial dilution; type: functional; settings: ATCC 10031, 18 h
[6] = tested on: Escherichia coli; test: Antibacterial activity against Escherichia coli ATCC 8739 after 18 hrs by two fold serial dilution; type: functional; settings: ATCC 8739, 18 h
[7] = tested on: Staphylococcus epidermidis; test: Antibacterial activity against Staphylococcus epidermidis ATCC 12228 after 18 hrs by two fold serial dilution; type: functional; settings: ATCC 12228, 18 h
[8] = tested on: Staphylococcus aureus; test: Antibacterial activity against Staphylococcus aureus ATCC 25923 after 24 hrs by NCCLS method; type: functional; settings: ATCC 25923, 24 h
[9] = tested on: Bacillus subtilis; test: Antibacterial activity against Bacillus subtilis ATCC 530 after 24 hrs by NCCLS method; type: functional; settings: ATCC 530, 24 h
[10] = tested on: Escherichia coli; test: Antibacterial activity against Escherichia coli ATCC 25922 after 24 hrs by NCCLS method; type: functional; settings: ATCC 25922, 24 h
[11] = tested on: Pseudomonas aeruginosa; test: Antibacterial activity against Pseudomonas aeruginosa ATCC 27853 after 24 hrs by NCCLS method; type: functional; settings: ATCC 27853, 24 h
[12] = tested on: Staphylococcus aureus; test: Antibacterial activity against Staphylococcus aureus; type: functional
[13] = tested on: Streptococcus pyogenes; test: Antibacterial activity against Streptococcus pyogenes; type: functional
[14] = tested on: Escherichia coli; test: Antibacterial activity against Escherichia coli; type: functional
[15] = tested on: Pseudomonas aeruginosa; test: Antibacterial activity against Pseudomonas aeruginosa; type: functional
[16] = tested on: Candida albicans; test: Antifungal activity against Candida albicans; type: functional
[17] = tested on: Proteus vulgaris; test: Antibacterial activity against Proteus vulgaris; type: functional
[18] = tested on: Klebsiella aerogenes; test: Antibacterial activity against Klebsiella aerogenes; type: functional
[19] = tested on: Enterococcus faecalis; test: Antibacterial activity against Enterococcus faecalis; type: functional
[20] = tested on: Staphylococcus epidermidis; test: Antibacterial activity against Staphylococcus epidermidis; type: functional
[21] = tested on: Salmonella typhimurium; test: Antibacterial activity against Salmonella typhimurium; type: functional, Salmonella enterica subsp. enterica serovar Typhimurium; settings: Salmonella enterica
[22] = tested on: Clostridioides difficile; test: Antibacterial activity against Clostridium difficile R20291 assessed as zone of inhibition at 2.5 ug/disc after 24 hrs; type: functional; settings: read-out: IZ
[23] = tested on: Clostridioides difficile; test: Antibacterial activity against Clostridium difficile ATCC 43603 assessed as zone of inhibition at 2.5 ug/disc after 24 hrs; type: functional; settings: ATCC 43603, 24 h, read-out: IZ
[24] = tested on: Clostridioides difficile; test: Antibacterial activity against Clostridium difficile 630 assessed as zone of inhibition at 2.5 ug/disc after 24 hrs; type: functional; settings: Clostridioides difficile, 630, 24 h; read-out: IZ
[25] = tested on: Klebsiella aerogenes; test: Antibacterial activity against Enterobacter aerogenes PTCC 1221 after 18 hrs by two fold serial dilution; type: functional; settings: PTCC 1221, 18 h

SMILES: Cn1c([N+](=O)[O-])cnc1-c1nnc(S)s1
zone of inhibition at 8 µg/disc [1]: 20.9 to 50 mm | zone of inhibition at 8 µg/disc [2]: 20.9 to 50 mm

MIC [3]: 2 to 64 µg/mL (≈ 5 to 160 µM) | MIC [4]: 2 to 64 µg/mL (≈ 5 to 160 µM) | MIC [5]: 2 to 64 µg/mL (≈ 5 to 160 µM) | MIC [6]: 2 to 64 µg/mL (≈ 5 to 160 µM) | MIC [7]: 2 to 64 µg/mL (≈ 5 to 160 µM)
SMILES: Cn1cnc([N+](=O)[O-])c1S(=O)(=O)c1nnc(-c2ncc([N+](=O)[O-])n2C)s1

MIC [8]: 3.12 to 50 µg/mL (≈ 6.59 to 106 µM) | MIC [9]: 3.12 to 50 µg/mL (≈ 6.59 to 106 µM) | MIC [10]: 3.12 to 50 µg/mL (≈ 6.59 to 106 µM) | MIC [11]: 3.12 to 50 µg/mL (≈ 6.59 to 106 µM)
SMILES: Cc1ccc(-n2nc(C)c(/C=N/NC(=O)Cn3c([N+](=O)[O-])cnc3C)c2Oc2ccccc2)cc1

SMILES: Cn1c([N+](=O)[O-])cnc1-c1nnc(Cl)s1
zone of inhibition at 8 µg/disc [1]: 20.9 to 50 mm | zone of inhibition at 8 µg/disc [2]: 20.9 to 50 mm

MIC [12]: 184 to 2890 µM | MIC [13]: 184 to 2890 µM (≈ 78.2 to 1230 µg/mL)
SMILES: Cc1nc([N+](=O)[O-])cn1Cc1nn(CNc2ccc(Br)cc2)c(=S)o1

MIC [12]: 31.2 to 500 µg/mL | MIC [14]: 31.2 to 500 µg/mL (≈ 85.8 to 1370 µM) | MIC [15]: 31.2 to 500 µg/mL (≈ 85.8 to 1370 µM) | MIC [16]: 31.2 to 500 µg/mL (≈ 85.8 to 1370 µM) | MIC [17]: 31.2 to 500 µg/mL (≈ 85.8 to 1370 µM) | MIC [18]: 31.2 to 500 µg/mL (≈ 85.8 to 1370 µM) | MIC [19]: 31.2 to 500 µg/mL (≈ 85.8 to 1370 µM) | MIC [20]: 31.2 to 500 µg/mL (≈ 85.8 to 1370 µM) | MIC [21]: 31.2 to 500 µg/mL (≈ 85.8 to 1370 µM)
SMILES: Cc1ncc([N+](=O)[O-])n1CCN1C(=O)S/C(=C\c2cccs2)C1=O

MIC [12]: 31.2 to 500 µg/mL | MIC [14]: 31.2 to 500 µg/mL (≈ 83.9 to 1340 µM) | MIC [15]: 31.2 to 500 µg/mL (≈ 83.9 to 1340 µM) | MIC [16]: 31.2 to 500 µg/mL (≈ 83.9 to 1340 µM) | MIC [17]: 31.2 to 500 µg/mL (≈ 83.9 to 1340 µM) | MIC [18]: 31.2 to 500 µg/mL (≈ 83.9 to 1340 µM) | MIC [19]: 31.2 to 500 µg/mL (≈ 83.9 to 1340 µM) | MIC [20]: 31.2 to 500 µg/mL (≈ 83.9 to 1340 µM) | MIC [21]: 31.2 to 500 µg/mL (≈ 83.9 to 1340 µM)
SMILES: Cc1ccc(/C=C2\SC(=O)N(CCn3c([N+](=O)[O-])cnc3C)C2=O)cc1

SMILES: C/C=C/c1nc(CS(=O)(=O)c2ccccc2)c([N+](=O)[O-])n1C
zone of inhibition at 2.5 µg/disc [22]: 13.5 to 24.5 mm | zone of inhibition at 2.5 µg/disc [23]: 13.5 to 24.5 mm | zone of inhibition at 2.5 µg/disc [24]: 13.5 to 24.5 mm

MIC [3]: 4 to 32 µg/mL (≈ 11.4 to 91.6 µM) | MIC [4]: > 64 µg/mL | MIC [5]: > 64 µg/mL | MIC [6]: > 64 µg/mL | MIC [25]: > 64 µg/mL
SMILES: COc1ccc(-c2nnc(Sc3c([N+](=O)[O-])ncn3C)s2)cc1

MIC [3]: 4 to 32 µg/mL (≈ 10.9 to 86.9 µM) | MIC [4]: > 64 µg/mL | MIC [5]: > 64 µg/mL | MIC [6]: > 64 µg/mL | MIC [25]: > 64 µg/mL
SMILES: Cn1cnc([N+](=O)[O-])c1Sc1nnc(-c2ncc([N+](=O)[O-])n2C)s1

MIC [12]: 184 to 2890 µM | MIC [13]: 184 to 2890 µM (≈ 67 to 1050 µg/mL)
SMILES: Cc1nc([N+](=O)[O-])cn1Cc1nn(CNc2ccc(F)cc2)c(=S)o1
